System: artificial thrombosis
Experiment: Fibrinolysis of artificial thrombosis (Chandler's method) with ultrasonic catheter
Format: biochemical, human
Settings: average of two tests; for time for achieving 20% fibrinolysis: FIG. 4, blood from one person
Method: An artificial thrombosis was formed by Chandler's method. A sample of blood (1 ml) collected from a healthy person was entered into a flexible tube (inside diameter 3 mm, length 265 mm) and calcium chloride was added. The tube was shaped like a loop and was rotated at 12 r.p.m. for 20 minutes to give an artificial thrombosis model.
A ceramic ultrasonic element (width 2 mm, length 5 mm, thickness 1 mm) was inserted into the tip of a catheter (diameter 2 mm), and an oscillating element was connected to an oscillator provided outside with a fine connector passed through the catheter. A fine tube for pouring a test solution was provided at an opening opposite to the opening of the catheter end.
The artificial thrombosis prepared as described above was added to a test tube together with blood, and the ultrasonic catheter was inserted into the test tube so that the end of the catheter was set close to the portion of the artificial thrombosis (at a distance of about 5 mm). To the test tube was added a mixture of urokinase and a booster prepared as in Example 1 at a rate of 1 ml per minute, wherein urokinase (concentration 1200 Ill/ml) and the booster were mixed immediately before pouring at a mixing ratio of 1:1 by mass. The mixture was refluxed while keeping the volume of the test solution at a constant level by removing excess volume of the solution by suction.
The mixture was exposed to the ultrasound at a frequency of 170 KHz to by a pulse method (exposure for 2 seconds followed by termination of exposure for 4 seconds) for 2 minutes. Total exposure time was 40 seconds). After the exposure, the ultrasonic catheter was removed from the test tube, and the mixture was incubated at 37° C. for between 5 and 120 minutes, washed with a physiological saline solution several times and dried overnight. Thereafter, the dried mixture was weighed. […]
The rate of fibrinolysis was calculated by the following equation: Fibrinolysis rate (%)=(A−B)/A×100, wherein • A is the weight of thrombosis in control; and • B is the weight of thrombosis treated. […]

## urokinase
With exposure of ultrasound 170 KHz pulsed, 40 s total
  time for achieving 20% fibrinolysis: 30 min
Without exposure of ultrasound, urokinase 1200 IU/ml
  time for achieving 20% fibrinolysis: about 45 minutes
FIG. 5, with exposure of ultrasound, energy reduced by 15%, blood from another person
  treatment time at which 50% fibrinolysis was achieved: 60 min

— patent US20070183976A1, “Composition for ultrasound therapy and pharmaceutical liquid composition containing the same” (IMARX THERAPEUTICS, INC., priority 2006, published 2007)
